Holding throughout (experiment): growth of human tumour cells (NCI), 48 h
The subject of test [1] is DMS-114.
Test [2] relates to M19-MEL.
In test [3] the test system is DLD-1.
Test [4] has as its system HOP-18.
Test [5] has as its system SNB-78.
Test [6] deals with KM-20L2.
Test [7] deals with LXFL 529.
The subject of test [8] is RXF 631.
For test [9], the system named is XF498.

SMILES strings stand for the structures.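 Values below derive from 48-hour exposures of cells grown in 96-well plates, with endpoints linearly interpolated between the two concentrations bracketing the appropriate inhibition level. GI50 marks 50% less growth.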 Activity calls are given as the source filed them. Cut-off read from the data, not from the text of the source: active = GI50 up to about 1.1 µM and inactive = higher. Some results are limits rather than exact numbers.

Turning to `S=C1OC2C3C4CC5C3C(O1)C1C5C4C21` (stereo not given), the GI50 in test [1] is 45.6 µM (inactive); in test [2] it was > 100 µM (inactive); in [3] it was > 100 µM (inactive); in [4], > 100 µM (inactive); in test [5], > 100 µM (inactive); in test [6] it was > 100 µM (inactive). Besides, the GI50 in [7] is > 100 µM (inactive).
For the molecule `C=C=C(C(=O)OC)[S+]([O-])c1ccc([N+](=O)[O-])cc1[N+](=O)[O-]` (stereo not given), the GI50 in test [1] was 21 µM (inactive); in test [2], 25.4 µM (inactive); in test [3], 16.2 µM (inactive); in [4], 44.2 µM (inactive); in test [8] it was 42 µM (inactive); in test [6] it was 26.5 µM (inactive). Also, the GI50 in [7] is 16.8 µM (inactive); in test [9] it was 39.1 µM (inactive).
For the molecule `Cc1c(CCCl)c(Cl)n2c(nc3ccccc32)c1C#N`, the GI50 in test [1] is 1.13 µM (inactive); in test [2] it was 4.21 µM (inactive); in test [3], 1.12 µM (active); in test [4] it was 1.51 µM (inactive); in test [5], 1.77 µM (inactive); in test [8] it was 0.568 µM (active). In addition, the GI50 was 0.641 µM (active) in [6] and 0.459 µM (active) in [7].
As for `COCOCCCCCO[Si](C)(C)C(C)(C)C`, the GI50 in [1] is 17.5 µM (inactive); in [2], 28.7 µM (inactive); in test [3], 31.6 µM (inactive); in [4], 30.8 µM (inactive); in [5] it was 22.8 µM (inactive); in [8], 19.4 µM (inactive). Moreover, the GI50 in [6] is 22.8 µM (inactive); in test [7], 26.9 µM (inactive); in [9], 15.7 µM (inactive).
Turning to `O=C(O)CSc1nnc(-c2ccco2)[nH]1`, the GI50 in test [2], in test [3], in test [5], in test [8], in test [6] and in test [7] was > 100 µM (inactive) each time. In [9], the GI50 is > 100 µM (inactive).
As for `O=C(Nc1ccc(Br)cc1)C(=O)C(C(=O)c1ccccc1F)C1OC(=O)c2ccccc21` (stereo not given), the GI50 is 14 µM (inactive) in test [1]; 17.2 µM (inactive) in [2]; 26.2 µM (inactive) in test [3]; 26.7 µM (inactive) in test [4]; 27.8 µM (inactive) in test [5]; 34.8 µM (inactive) in test [8]. Moreover, the GI50 in test [6] was 40.1 µM (inactive); in test [7], 23.1 µM (inactive).
As to `CCn1c(CSc2nc(-c3ccccc3)c(-c3ccccc3)[nH]2)n[nH]c1=S`, the GI50 in test [1], in test [2], in test [3], in [5], in test [6] and in [7] was > 100 µM (inactive) in each case. Further, the GI50 in [9] was > 100 µM (inactive).
In the case of `O=C(c1ccc(Cl)cc1)c1ccc(OCCCOc2ccc(C(=O)c3ccc(Cl)cc3)cc2)cc1`, the GI50 in test [1], in [2], in test [3], in test [6], in [7] and in [9] was > 100 µM (inactive) throughout.
Consider `CC12N=NN(c3ccc([N+](=O)[O-])cc3)C1(O)c1ccccc1C2=O` (stereo not given), for which the GI50 in [1], in test [2], in test [6], in test [7] and in test [9] was > 100 µM (inactive) each time.
With `COc1ccc(OC)c(NC(=O)CCC/C(CC(=O)c2ccc(O)c(OC)c2)=N\NC(=O)C[N+](C)(C)C)c1`, the GI50 in [1], in test [2], in test [3], in test [4], in [8] and in test [6] was > 100 µM (inactive) throughout. Moreover, the GI50 in [7] and in test [9] was > 100 µM (inactive) each time.
`O=C(c1nc2ccc(Cl)cc2[nH]c1=O)C(O)c1ccco1` (stereo not given): the GI50 was 4.91 µM (inactive) in [1]; > 100 µM (inactive) in test [2]; > 100 µM (inactive) in [3]; > 100 µM (inactive) in test [4]; 6.04 µM (inactive) in test [8]; 24.5 µM (inactive) in test [6]. Besides, in [7], the GI50 is 42.9 µM (inactive).
Regarding `COc1ccc(O)c(C(=O)CCC(=O)O)c1`, the GI50 in test [1], in [2], in test [3], in test [5], in test [8] and in test [7] was > 100 µM (inactive) each time. Besides, the GI50 in test [9] was > 100 µM (inactive).
`CN(C)NC1=C([N+](=O)[O-])C=NN(c2ccccc2)C1`: the GI50 was 1.84 µM (inactive) in [1]; 1.81 µM (inactive) in test [2]; 1.83 µM (inactive) in test [3]; 1.81 µM (inactive) in [4]; 2.17 µM (inactive) in test [5]; 1.53 µM (inactive) in [8]. In addition, the GI50 in test [6] is 1.9 µM (inactive); in test [7] it was 1.65 µM (inactive); in test [9] it was 2.36 µM (inactive).
Consider `COc1ccc(N(C)Sc2ccccc2)cc1`, for which the GI50 in test [1] was 36.6 µM (inactive); in test [2], 69 µM (inactive); in test [3], 47.5 µM (inactive); in [4], 68.4 µM (inactive); in test [5], > 100 µM (inactive); in [6], 55.6 µM (inactive). For the same molecule, the GI50 in [7] is 45.3 µM (inactive); in test [9], 24 µM (inactive).
With `[O-][S+]1CSCS1` (stereo not given), the GI50 in test [1] was > 100 µM (inactive); in test [2], > 100 µM (inactive); in [3], > 100 µM (inactive); in test [4], > 100 µM (inactive); in test [5], 91.8 µM (inactive); in [8] it was 85.9 µM (inactive). The GI50 in [6], in test [7] and in [9] was > 100 µM (inactive) throughout.
As to `Cc1cc([N+](=O)[O-])c(S(=O)(=O)c2ccccc2)c([N+](=O)[O-])c1`, the GI50 was 3.14 µM (inactive) in [1]; 11.7 µM (inactive) in test [2]; 4 µM (inactive) in [3]; 16.1 µM (inactive) in test [4]; 17.2 µM (inactive) in test [5]; 38.6 µM (inactive) in [8]. Moreover, the GI50 in test [6] was 17.9 µM (inactive); in test [7] it was 3.66 µM (inactive); in test [9], 4.35 µM (inactive).
Take `O=C(O)/C=C\C(=O)c1ccc(Cl)cc1`: the GI50 in test [1] was 21.4 µM (inactive); in [2], 24.3 µM (inactive); in test [3], 35.2 µM (inactive); in test [4], > 69.2 µM (inactive); in test [5], 33.7 µM (inactive); in test [8] it was > 100 µM (inactive). Besides, the GI50 is 36.7 µM (inactive) in test [6], 21.8 µM (inactive) in test [7] and 27.7 µM (inactive) in test [9].
For `COc1ccc(C2=C[C@]3(O)CCCN3C[C@@H]2c2ccc(OC)c(OC)c2)cc1`, the GI50 in test [3], in [4], in test [5], in test [6], in [7] and in test [9] was < 0.0001 µM (active) in each case.
With `CC1CC(C)C(=O)C(C(=O)CC2CC(=O)NC2=O)C1` (stereo not given), the GI50 was > 100 µM (inactive) in test [1]; > 100 µM (inactive) in test [2]; > 100 µM (inactive) in test [3]; > 100 µM (inactive) in test [4]; > 100 µM (inactive) in [5]; 72.6 µM (inactive) in test [8]. Moreover, the GI50 in test [6], in [7] and in test [9] was > 100 µM (inactive) each time.
In the case of `Cc1cc2c3ccccc3n(C)c2c2c1C(=O)C=CC2=O`, the GI50 was 6.05 µM (inactive) in test [1]; 18.2 µM (inactive) in [2]; 12.7 µM (inactive) in test [3]; 17.4 µM (inactive) in test [5]; 3.99 µM (inactive) in [7]; 16.3 µM (inactive) in test [9].
Turning to `CCn1cnc2c(=S)nc(N)[nH]c21`, the GI50 in test [1], in test [2], in test [3], in test [5], in test [6] and in test [7] was > 100 µM (inactive) in each case.
For the molecule `CC1(c2ccccc2)CC12C(=O)NC(=O)NC2=O` (stereo not given), the GI50 in [1], in test [2], in [3], in [5], in test [6] and in [7] was > 100 µM (inactive) throughout. Moreover, the GI50 in test [9] is > 100 µM (inactive).
On to `COC(=O)c1c(C)oc2ccc(OC(C)=O)cc12`, for which the GI50 in [1], in test [2], in [5] and in test [6] was > 100 µM (inactive) each time.
For `CC1(Cl)CC2OC3(Br)C=CC(C)(O)C2(CC1Br)C3(C)C` (stereo not given), the GI50 in test [1], in test [2], in test [3], in test [4], in [5] and in [6] was > 100 µM (inactive) in each case. The GI50 in [7] is > 100 µM (inactive).
`CCCCCC(=O)Nc1nc(O)c2[nH]cnc2n1`: the GI50 in test [1], in test [2], in test [3], in test [4], in test [5] and in test [6] was > 100 µM (inactive) each time. Besides, the GI50 in [7] and in [9] was > 100 µM (inactive) each time.
`C#Cc1cccc(N2C(=O)CC(=P(c3ccccc3)(c3ccccc3)c3ccccc3)C2=O)c1`: the GI50 was 19.9 µM (inactive) in test [1]; 42.9 µM (inactive) in test [2]; > 100 µM (inactive) in test [3]; > 100 µM (inactive) in [5]; 11.8 µM (inactive) in test [7]; 0.405 µM (active) in test [9].

(Values after ChEMBL document CHEMBL1201862, “PubChem BioAssay data set” (2004).)
